In the supplement of paper PMC10307832:

Assays:
Assay in all cases: relative viability (nuclei count vs DMSO), 5 days (fraction); higher = more cells survive
[1] = compound: CC1=C(C=CC(=C1)[N+](=O)[O-])NS(=O)(=O)C2=C(C=CC(=C2)Cl)Cl [FH535] + C[C@]1(O)C[C@@H](c2nc(-c3ccc4ccc(-c5ccccc5)nc4c3)c3c(N)nccn32)C1 [Linsitinib] (partner 1 µM)
Outline: (§1)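 Lung cancer cell lines were pin-tool dosed in 1536-well plates on the day after seeding, with either a lone drug or a fixed anchor-drug dose plus five library-drug doses (not always all listed) in √10 steps. Nuclei were counted on 4× images after 5 days. Relative viability is the ratio of treated-well to vehicle-well nuclei counts, with each value a median of duplicate plates.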

[2] = compound: CC1=C(C=CC(=C1)[N+](=O)[O-])NS(=O)(=O)C2=C(C=CC(=C2)Cl)Cl [FH535] + O=C(c1cc(Cc2n[nH]c(=O)c3ccccc23)ccc1F)N1CCN(C(=O)C2CC2)CC1 [Olaparib] (partner 8 µM)
Outline: as §1

[3] = compound: CC1=C(C=CC(=C1)[N+](=O)[O-])NS(=O)(=O)C2=C(C=CC(=C2)Cl)Cl [FH535] + O=C(CCCCCCC(=O)Nc1ccccc1)NO [Vorinostat] (partner 1 µM)
Outline: as §1

[4] = compound: CC1=C(C=CC(=C1)[N+](=O)[O-])NS(=O)(=O)C2=C(C=CC(=C2)Cl)Cl [FH535] + Cc1nc(Nc2ncc(C(=O)Nc3c(C)cccc3Cl)s2)cc(N2CCN(CCO)CC2)n1 [Dasatinib] (partner 0.075 µM)
Outline: as §1

[5] = compound: CC1=C(C=CC(=C1)[N+](=O)[O-])NS(=O)(=O)C2=C(C=CC(=C2)Cl)Cl [FH535] + Cc1cc(Nc2cc(N3CCN(C)CC3)nc(Sc3ccc(NC(=O)C4CC4)cc3)n2)n[nH]1 [Tozasertib] (partner 0.1 µM)
Outline: as §1

Row | Cell Line | relative viability ([1]; first compound 0.04 µM) | relative viability ([1]; first compound 0.1265 µM) | relative viability ([1]; first compound 0.4 µM) | relative viability ([1]; first compound 1.265 µM) | relative viability ([2]; first compound 0.04 µM) | relative viability ([2]; first compound 0.1265 µM) | relative viability ([2]; first compound 0.4 µM) | relative viability ([2]; first compound 1.265 µM) | relative viability ([3]; first compound 0.04 µM) | relative viability ([3]; first compound 0.1265 µM) | relative viability ([3]; first compound 0.4 µM) | relative viability ([3]; first compound 1.265 µM) | relative viability ([4]; first compound 0.04 µM) | relative viability ([4]; first compound 0.1265 µM) | relative viability ([4]; first compound 0.4 µM) | relative viability ([4]; first compound 1.265 µM) | relative viability ([5]; first compound 0.04 µM) | relative viability ([5]; first compound 0.1265 µM) | relative viability ([5]; first compound 0.4 µM) | relative viability ([5]; first compound 1.265 µM)
1 | LXF-289 | 0.949 | 0.938 | 0.897 | 0.697 | 0.916 | 1.06 | 1.03 | 0.587 | 0.58 | 0.762 | 0.698 | 0.574 | 0.205 | 0.262 | 0.225 | 0.212 | 0.191 | 0.172 | 0.166 | 0.136
2 | NCI-H23 | – | 0.633 | 0.628 | 0.567 | 0.255 | 0.331 | 0.3 | 0.273 | 0.399 | 0.535 | 0.564 | 0.378 | 0.769 | 0.529 | 0.61 | 0.731 | 0.281 | 0.344 | 0.466 | 0.301
3 | NCI-H322M | 0.982 | 1.07 | 1 | 0.847 | 0.739 | 0.664 | 0.778 | 0.741 | 0.898 | 0.878 | 0.83 | 0.744 | 0.255 | 0.268 | 0.238 | 0.219 | 0.493 | 0.514 | 0.475 | 0.468
4 | NCI-H358 | 0.696 | 0.822 | 0.791 | 0.552 | 0.558 | 0.611 | 0.589 | 0.635 | 0.588 | 0.778 | 0.664 | 0.43 | 0.141 | 0.15 | 0.159 | 0.143 | 0.0899 | 0.0929 | 0.104 | 0.0851
5 | NCI-H441 | 0.573 | 0.447 | 0.521 | 0.615 | 0.516 | 0.501 | 0.459 | 0.439 | 0.733 | 0.59 | 0.843 | 0.757 | 0.436 | 0.518 | 0.527 | 0.472 | 0.614 | 0.755 | 0.581 | 0.564
6 | NCI-H460 | 0.902 | 0.891 | 0.791 | 0.678 | 0.402 | 0.386 | 0.379 | 0.32 | 0.72 | 0.743 | 0.674 | 0.447 | 0.356 | 0.546 | 0.452 | 0.337 | 0.219 | 0.5 | 0.382 | 0.21
7 | NCI-H520 | 0.982 | 0.959 | 0.915 | 0.873 | 0.319 | 0.277 | 0.268 | 0.314 | 0.546 | 0.723 | 0.81 | 0.714 | 0.203 | 0.193 | 0.2 | 0.19 | 0.375 | 0.44 | 0.393 | 0.401
8 | NCI-H596 | 1.1 | 1.13 | 1.1 | 1.01 | 0.725 | 0.815 | 0.733 | 0.598 | 0.579 | 0.511 | 0.569 | 0.544 | 0.673 | 0.574 | 0.604 | 0.55 | 0.947 | 0.992 | 0.931 | 0.696
9 | NCI-H647 | 1.09 | 1.11 | 1.17 | 0.912 | 0.586 | 0.528 | 0.467 | 0.509 | 0.442 | 0.63 | 0.408 | 0.462 | 0.183 | 0.193 | 0.129 | 0.152 | 0.314 | 0.145 | 0.176 | 0.42
10 | NCI-H650 | 0.687 | 1.09 | 0.832 | 0.603 | 0.384 | 0.341 | 0.369 | 0.249 | 0.342 | 0.383 | 0.385 | 0.365 | 0.4 | 0.462 | 0.429 | 0.309 | 0.603 | 0.783 | 0.766 | 0.51
11 | NCI-H661 | 0.521 | 0.537 | 0.539 | 0.493 | 0.729 | 0.743 | 0.66 | 0.515 | 0.745 | 0.821 | 0.799 | 0.687 | 0.704 | 0.994 | 0.615 | 0.475 | 0.365 | 0.339 | 0.346 | 0.332
12 | NCI-H727 | 0.367 | 0.192 | 0.293 | 0.216 | 0.746 | 0.675 | 0.527 | 0.549 | 1.17 | 1.15 | 1.1 | 1.22 | 0.405 | 0.434 | 0.364 | 0.402 | 0.465 | 0.545 | 0.582 | 0.504
13 | NCI-H838 | 0.987 | 1.03 | 0.938 | 0.908 | 0.727 | 0.768 | 0.66 | 0.475 | 0.704 | 0.754 | 0.659 | 0.591 | 0.276 | 0.291 | 0.284 | 0.269 | 0.286 | 0.246 | 0.272 | 0.19
14 | NCI-H1355 | 0.745 | 0.822 | 0.78 | 0.633 | 0.649 | 0.796 | 0.709 | 0.476 | 0.574 | 0.631 | 0.565 | 0.534 | 0.723 | 0.692 | 0.57 | 0.605 | 0.507 | 0.584 | 0.557 | 0.399
15 | NCI-H1395 | 0.877 | 1.41 | 1.07 | 0.862 | 0.491 | 0.46 | 0.437 | 0.414 | 0.543 | 0.679 | 0.697 | 0.532 | 0.361 | 0.402 | 0.413 | 0.344 | 0.68 | 0.872 | 0.774 | 0.678
16 | NCI-H1437 | 1.02 | 0.962 | 0.879 | 0.421 | 0.608 | 0.575 | 0.491 | 0.336 | 0.905 | 0.847 | 0.629 | 0.304 | 0.372 | 0.405 | 0.184 | 0.109 | 0.425 | 0.404 | 0.358 | 0.22
